One compound from paper PMC7033309, “π-Helix controls activity of oxygen-sensing diguanylate cyclases” (Bioscience Reports, 2020) can be followed below.

Assay [1] has as its target T1, PccGCS (Pectobacterium carotovorum, UniProt C6D9C2, H237A/K238A).
T1 construct: gene PC1_2619; full-length PccGCS H237A/K238A (His-tagged)
T1 sequence (C6D9C2 1-471 H237A/K238A): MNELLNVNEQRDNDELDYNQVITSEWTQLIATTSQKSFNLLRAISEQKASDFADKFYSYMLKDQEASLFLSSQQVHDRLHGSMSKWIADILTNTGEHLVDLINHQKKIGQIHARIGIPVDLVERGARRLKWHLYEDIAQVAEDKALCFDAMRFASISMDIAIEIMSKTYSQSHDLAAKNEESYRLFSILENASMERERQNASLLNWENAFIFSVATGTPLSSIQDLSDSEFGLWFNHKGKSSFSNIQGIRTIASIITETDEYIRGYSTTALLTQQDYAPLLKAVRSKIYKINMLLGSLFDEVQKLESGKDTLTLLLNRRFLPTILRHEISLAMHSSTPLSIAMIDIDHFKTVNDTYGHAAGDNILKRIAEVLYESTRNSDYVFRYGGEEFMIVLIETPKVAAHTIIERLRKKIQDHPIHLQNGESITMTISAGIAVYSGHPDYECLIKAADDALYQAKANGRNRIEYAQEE
The assay can be described thus: EnzChek pyrophosphate diguanylate cyclase turnover assay with purified protein, […] GTP. The class given is biochemical.

Assay [2] deals with T2, PccGCS (Pectobacterium carotovorum, UniProt C6D9C2).
T2 construct: gene PC1_2619; full-length PccGCS WT (His-tagged)
The assay is described as above. The class given is biochemical.

Consider `Nc1nc2c(ncn2[C@@H]2O[C@H](COP(=O)(O)OP(=O)(O)OP(=O)(O)O)[C@@H](O)[C@H]2O)c(=O)[nH]1` [GTP], for which the results for the “EnzChek pyrophosphate diguanylate cyclase turnover assay with purified protein,” value on PccGCS [1] and on PccGCS [2] were 0.0227 min⁻¹ and 0.759 min⁻¹, respectively.
